Tests used:
Assay type in all cases: cell-based
[1] = test system: Puf-A; assay: Effect of small molecules blocking downstream effectors of Kras pathway on Puf-A expression (Western blot); settings: H460 and HCT116 cancer cells
Text: FIG. 3C is a series of bar graphs showing Puf-A promoter activity in Kras^G12D or c-Myc transfected cells, determined by dual-luciferase reporter assay. FIG. 3D illustrates the binding of c-Myc protein to exon 1 of Puf-A locus in H1299 and HCT116 cells. […] FIG. 3F is an assembly of the Western blot images illustrating the effect of Raf inhibitor (Raf (i)), MEK1 inhibitor (PD98059) and MEK1/2 inhibitor (U0126) on the expression of Puf-A, phosphorylated ERK1/2, total ERK1/2 and β-actin in H460 (Kras ^Q61H) and HCT116 (Kras^G13D) cancer cells.
The effect of various small molecules (such as Raf(i), PD98059 and UO126), which block the downstream effectors of Kras pathway (such as Rafs, MEK1 and MEK2), was assessed in H460 and HCT116 cancer cells.

[2] = test system: Puf-A protein; assay: Effect of resveratrol on Puf-A protein expression (Western blot); settings: 25 and 50 uM
Description: (§1) FIG. 9A is an assembly of Western blot images illustrating 25 and 50 uM of resveratrol reduced the expression of Puf-a in A549 lung cancer cells, HCT116 colon cancer cells, MB231 breast cancer cells and T98 glioblatoma cells. FIG. 9B is an assembly of graphs illustrating 25 and 50 uM of resveratrol was effective in reducing the proliferation of A549 lung cancer cells, HCT116 colon cancer cells, MB231 breast cancer cells and T98 glioblatoma cells.
(§2) An in vitro evaluation of the effect of Resveratrol on the expression level of Puf-a protein and cell proliferation in various cancer cells was examined. The following cancer cells were treated with 0, 25 or 50 uM of Resveratrol (commercially available from Sigma, USA): A549 lung cancer cells (p53 proficient), HCT116 colon cancer cells (p53 proficient), MB231 breast cancer cells (p53 deficient) and T98 glioblatoma cells (p53 deficient). The expression of Puf-A protein in these cancer cells was analyzed by western blot and the cell proliferation was measured with a cell proliferation assay performed with xCELLigenece RTCA system (ACEA Biosciences Inc, USA). FIG. 9A is an assembly of Western blot images illustrating 25 and 50 uM of resveratrol reduced the expression of Puf-A in A549 lung cancer cells, HCT116 colon cancer cells, MB231 breast cancer cells and T98 glioblatoma cells. FIG. 9B is an assembly of graphs illustrating 25 and 50 uM of resveratrol reduced the proliferation of A549 lung cancer cells, HCT116 colon cancer cells, MB231 breast cancer cells and T98 glioblatoma cells compare to the control group (no resveratrol).

[3] = test system: A549 lung cancer cells; assay: Cell proliferation assay, xCELLigenece RTCA system, A549; settings: 25 and 50 uM
Description: as §1
as §2, with “FIG. 9B is an assembly of graphs illustrating 25 and 50 uM of resveratrol reduced the proliferation of A549 lung cancer cells, HCT116 colon cancer cells, MB231 breast cancer cells and T98 glioblatoma cells compare to the control group (no resveratrol).” left out

[4] = test system: HCT116 colon cancer cells; assay: Cell proliferation assay, xCELLigenece RTCA system, HCT116; settings: 25 and 50 uM
Description: as §1
as §2, with “FIG. 9B is an assembly of graphs illustrating 25 and 50 uM of resveratrol reduced the proliferation of A549 lung cancer cells, HCT116 colon cancer cells, MB231 breast cancer cells and T98 glioblatoma cells compare to the control group (no resveratrol).” left out

[5] = test system: MB231 breast cancer cells; assay: Cell proliferation assay, xCELLigenece RTCA system, MB231; settings: 25 and 50 uM
Description: as §1
as §2, with “FIG. 9B is an assembly of graphs illustrating 25 and 50 uM of resveratrol reduced the proliferation of A549 lung cancer cells, HCT116 colon cancer cells, MB231 breast cancer cells and T98 glioblatoma cells compare to the control group (no resveratrol).” left out

[6] = test system: T98 glioblatoma cells; assay: Cell proliferation assay, xCELLigenece RTCA system, T98; settings: 25 and 50 uM
Description: as §1
as §2, with “FIG. 9B is an assembly of graphs illustrating 25 and 50 uM of resveratrol reduced the proliferation of A549 lung cancer cells, HCT116 colon cancer cells, MB231 breast cancer cells and T98 glioblatoma cells compare to the control group (no resveratrol).” left out

COc1cccc(-c2cc(=O)c3ccccc3o2)c1N [PD98059]
reduced: expression levels of Puf-A [1]

Oc1ccc(C=Cc2cc(O)cc(O)c2)cc1 [resveratrol]
reduced: expression of Puf-A ([2]; A549 lung cancer cells (p53 proficient)) | expression of Puf-A ([2]; HCT116 colon cancer cells (p53 proficient)) | expression of Puf-A ([2]; MB231 breast cancer cells (p53 deficient)) | expression of Puf-A ([2]; T98 glioblatoma cells (p53 deficient)) | proliferation compared to control group (no resveratrol) [3] | proliferation compared to control group (no resveratrol) [4] | proliferation compared to control group (no resveratrol) [5] | proliferation compared to control group (no resveratrol) [6]

— patent publication US9885044B2, “Polynucleotides and methods for inhibiting cancer cells” (Chang Gung Memorial Hospital, Linkou, priority 2015, dated 2018)
